According to US7041461B2 (H. Lundbeck A/S, priority 1998, dated 2006):
Entries after “also recorded” stand apart in the source; their conditions may differ. Read-outs that look alike come from different tables or passages of the source. Non-standard residues stand in square brackets, D forms with d. Residues, ends and D or L forms follow the SMILES beside them. No end group written: not given here. NMeF = CN[C@@H](Cc1ccccc1)C(=O)O

Key:
SNORF2 (NPFF1) = biological target: T1, SNORF2 (NPFF1) (Rattus norvegicus, UniProt Q9EP86); assay: Voltage-clamp electrophysiology in Xenopus oocytes expressing SNORF2 (NPFF1) and chimeric Gαq/z; type: cell-based; conditions: for activation of oocytes injected with SNORF2 synthetic RNA: unrelated neuropeptides and neurotransmitters, concentration not given; for inward current response: 1 μM, holding potential −80 mV
T1 construct: from linearized plasmids or PCR products containing the complete coding region of the genes; expressed in transfected cells; host or cells: Xenopus laevis oocytes injected with synthetic RNA
Protocol: (§1) Oocytes were harvested from Xenopus laevis and injected with mRNA transcripts as previously described (Quick and Lester, 1994; Smith et al., 1997). […] Three to eight hours prior to recording, oocytes were injected with 500 pg Gαq/z mRNA in order to observe coupling to Ca^++ activated Cl^− currents. Dual electrode voltage clamp (Axon Instruments Inc.) was performed using 3 M KCl-filled glass microelectrodes having resistances of 1–2 Mohm. Unless otherwise specified, oocytes were voltage clamped at a holding potential of −80 mV. During recordings, oocytes were bathed in continuously flowing (1–3 ml/min) medium containing 96 mM NaCl, 2 mM KCl, 1.8 mM CaCl2, 1 mM MgCl2, and 5 mM HEPES, pH 7.5 (ND96). Drugs were applied either by local perfusion from a […] glass capillary tube fixed at a distance of 0.5 mm from the oocyte, or by switching from a series of gravity fed perfusion lines.
Heterologous expression of GPCRs in Xenopus oocytes has been widely used to determine the identity of signaling pathways activated by agonist stimulation (Gundersen et al., 1983; Takahashi et al., 1987). Activation of the phospholipase C (PLC) pathway is assayed by applying test compound in ND96 solution to oocytes previously injected with mRNA for the mammalian receptor and observing inward currents at a holding potential of −80 mV. The appearance of currents that reverse at −25 mV and display other properties of the Ca^++-activated Cl^− (chloride) channel is indicative of mammalian receptor-activation of PLC and release of IP3 and intracellular Ca^++.
Control oocytes receiving only G-protein synthetic RNA were unresponsive to these peptides. […] Similarly, SNORF2-like was renamed NPFF-like.

[1] = biological target: T2, cloned rat NPFF1 receptor (Rattus norvegicus, UniProt Q9EP86); assay: Radioligand binding to cloned rat NPFF1 receptor, membranes of transiently transfected COS-7 cells
T2 construct: expressed in transfected cells; host or cells: COS-7 cells, transient; membranes
Protocol: Transfected cells from culture flasks are scraped into 5 ml of 20 mM Tris-HCl, 5 mM EDTA, pH 7.5, and lysed by sonication. The cell lysates are centrifuged at 1000 rpm for 5 min. at 4° C., and the supernatant is centrifuged at 30,000× g for 20 min. at 4° C. […] Optimal membrane suspension dilutions, defined as the protein concentration required to bind less than 10% of the added radioligand, […], unlabeled compounds, and binding buffer to a final volume of 250 μl. In equilibrium saturation binding assays membrane preparations are incubated in the presence of increasing concentrations of [^3H]-labeled compound.
(§2) Competition assay: 50 pM radioligand, 10–12 points. Binding reaction mixtures are incubated for 2 hr at 25° C., and the reaction stopped by filtration through a double layer of GF filters treated with 0.1% polyethyleneimine, using a cell harvester. Wash buffer: 50 mM Tris-HCl, 0.1% BSA. Radioactivity may be measured by scintillation counting and data are analyzed by a computerized non-linear regression program. Non-specific binding is defined as the amount of radioactivity remaining after incubation of membrane protein in the presence of 1 μM final concentration […]. Protein concentration may be measured by the Bradford method using Bio-Rad Reagent, with bovine serum albumin as a standard.
Cos-7 cells transiently expressing the gene encoding the novel rat NPFF1 receptor were used for pharmacological evaluation. […]

[2] = biological target: rat spinal cord membrane receptor; assay: Radioligand binding to rat spinal cord membranes; conditions: * marks difference from NPFF1
Protocol: Transfected cells from culture flasks are scraped into 5 ml of 20 mM Tris-HCl, 5 mM EDTA, pH 7.5, and lysed by sonication. The cell lysates are centrifuged at 1000 rpm for 5 min. at 4° C., and the supernatant is centrifuged at 30,000× g for 20 min. at 4° C. […] Optimal membrane suspension dilutions, defined as the protein concentration required to bind less than 10% of the added radioligand, are added to 96-well polpropylene microtiter plates containing ^3H-labeled compound, unlabeled compounds, and binding buffer to a final volume of 250 μl. In equilibrium saturation binding assays membrane preparations are incubated in the presence of increasing concentrations of [^3H]-labeled compound.
as §2
The binding profile of rat NPFF1 was compared to that of rat spinal cord membranes. […] (See * Table 2).

NPFF-1 receptor = biological target: T3, NPFF-1 receptor (Rattus norvegicus, UniProt Q9EP86); assay: Total inositol phosphate release in transiently transfected Cos-7 cells; type: cell-based
T3 construct: expressed in transfected cells; host or cells: Cos-7 cells, transient, intact cells

NPFF receptors = conditions: at a concentration of 10 μM; spinal cord membranes; cited from earlier work
NPFF2 (hNPFF2) = biological target: T4, NPFF2 (hNPFF2) (Homo sapiens, UniProt Q9Y5X5); assay: Voltage-clamp electrophysiology in Xenopus oocytes expressing NPFF2 (NPFF-like) and chimeric Gαq/z; type: cell-based; conditions: 1 μM; oocytes with NPFF2 (NPFF-like) mRNA and Gαq/z; −80 mV
T4 construct: BO89, was determined to be a full length clone with no point mutations; expressed in transfected cells; host or cells: Xenopus laevis oocytes injected with synthetic mRNA
Protocol: Electrophysiological responses in voltage-clamped oocytes expressing NPFF2 mRNA. […] Oocytes were clamped at a holding potential of −80 mV.
For expression of NPFF2, mRNA transcripts were generated as described for NPFF1, using PCR products from ligation reactions or linearized DNA from B089 as DNA templates. Oocytes were injected with 5–50 ng NPFF2 mRNA and incubated as previously described.
as §1

[3] = competition of [125I]D-Tyr-NPFF binding, transiently transfected COS-7 membranes, read-out: pKi for cloned rat NPFF1 receptor binding in COS-7 cells, MEAN (converted)
[4] = competition of [125I]D-Tyr-NPFF binding, transiently transfected COS-7 membranes

T2 sequence (Q9EP86 whole entry): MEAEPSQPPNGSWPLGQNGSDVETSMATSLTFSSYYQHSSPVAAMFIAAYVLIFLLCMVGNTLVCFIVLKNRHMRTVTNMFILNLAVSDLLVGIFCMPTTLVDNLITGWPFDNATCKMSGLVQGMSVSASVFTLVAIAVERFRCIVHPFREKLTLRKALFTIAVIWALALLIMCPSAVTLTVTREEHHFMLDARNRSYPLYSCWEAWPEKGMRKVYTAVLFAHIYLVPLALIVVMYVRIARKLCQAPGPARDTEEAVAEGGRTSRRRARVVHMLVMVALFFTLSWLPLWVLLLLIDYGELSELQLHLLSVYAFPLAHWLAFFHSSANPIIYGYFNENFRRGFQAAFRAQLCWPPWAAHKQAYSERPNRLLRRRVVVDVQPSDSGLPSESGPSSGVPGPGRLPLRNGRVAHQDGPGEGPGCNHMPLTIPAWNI
T1 sequence (Q9EP86 whole entry): as above
T4 sequence (Q9Y5X5 103-522): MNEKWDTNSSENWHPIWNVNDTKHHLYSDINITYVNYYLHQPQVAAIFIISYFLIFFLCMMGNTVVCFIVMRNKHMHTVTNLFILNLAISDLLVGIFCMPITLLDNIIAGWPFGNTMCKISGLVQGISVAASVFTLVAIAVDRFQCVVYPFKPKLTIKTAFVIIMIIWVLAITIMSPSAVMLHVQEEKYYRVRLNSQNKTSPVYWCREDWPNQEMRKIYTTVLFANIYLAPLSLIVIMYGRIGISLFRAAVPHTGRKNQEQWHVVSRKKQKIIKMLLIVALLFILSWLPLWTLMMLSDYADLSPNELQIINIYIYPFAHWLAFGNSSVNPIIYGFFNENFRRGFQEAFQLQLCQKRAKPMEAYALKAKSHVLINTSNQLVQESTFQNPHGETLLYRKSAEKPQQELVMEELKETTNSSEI
T3 sequence (Q9EP86 whole entry): as the sequence (Q9EP86 whole entry) above

NCCc1c[nH]c2ccc(O)cc12 [5-HT]
activation of oocytes injected with SNORF2 synthetic RNA (SNORF2 (NPFF1)): failed to activate

CC(C)C[C@@H](NC(=O)[C@H](N)Cc1ccc(O)cc1)C(=O)N[C@H](Cc1ccccc1)C(=O)N[C@@H](CCC(N)=O)C(=O)N1CCC[C@H]1C(=O)N[C@@H](CCC(N)=O)C(=O)N[C@@H](CCCNC(=N)N)C(=O)N[C@@H](Cc1ccccc1)C(N)=O [(3D)Y8Fa] (H-[dY][dL][dF]QPQRF-NH2; N-terminus assumed)
Ki [1, 3]: 2.38 nM

CC(C)C[C@H](NC(=O)[C@H](N)Cc1ccc(O)cc1)C(=O)N(C)[C@@H](Cc1ccccc1)C(=O)N[C@@H](CCC(N)=O)C(=O)N1CCC[C@H]1C(=O)N[C@@H](CCC(N)=O)C(=O)N[C@@H](CCCN=C(N)N)C(=O)N[C@@H](Cc1ccccc1)C(N)=O [(D-Tyr^1-(NMe)Phe^3)NPFF] (H-[dY]L[NMeF]QPQRF-NH2)
Ki [1, 3]: 2.82 nM

CSCC[C@H](NC(=O)[C@H](Cc1ccc(OS(=O)(=O)O)cc1)NC(=O)[C@@H](N)CC(=O)O)C(=O)NCC(=O)N[C@@H](Cc1c[nH]c2ccccc12)C(=O)N[C@@H](CCSC)C(=O)N[C@@H](CC(=O)O)C(=O)N[C@@H](Cc1ccccc1)C(N)=O [CCK8]
pKi for rat spinal cord membrane receptor binding, MEAN [2]: 5.000

N=C(N)NCCC[C@@H](N)C(=O)O [D-arginine]
pKi for cloned rat NPFF1 receptor binding in COS-7 cells, MEAN [1, 4]: 5.000 | pKi for rat spinal cord membrane receptor binding, MEAN [2]: 5.000

N=C(N)NCCC[C@H](N)C(=O)O [L-arginine]
pKi for cloned rat NPFF1 receptor binding in COS-7 cells, MEAN [1, 4]: 5.000 | pKi for rat spinal cord membrane receptor binding, MEAN [2]: 5.000

CC(C)C[C@H](NC(=O)[C@@H](N)Cc1ccccc1)C(=O)N[C@@H](Cc1ccccc1)C(=O)N[C@@H](CCC(N)=O)C(=O)N1CCC[C@H]1C(=O)N[C@@H](CCC(N)=O)C(=O)N[C@@H](CCCNC(=N)N)C(=O)N[C@@H](Cc1ccccc1)C(N)=O [NPFF(F-8-Fa)]
Emax, total IP release (NPFF-1 receptor; Cos-7 cells transfected with NPFF1 alone): approximately 200 % basal | Emax, total IP release (NPFF-1 receptor; Cos-7 cells transfected with NPFF1 receptor and Gq/Gz chimera): approximately 1500 % basal | inward current response (SNORF2 (NPFF1); oocytes with SNORF2 and Gαq/z): robust inward currents | threshold for activation of inward current (SNORF2 (NPFF1); oocytes with SNORF2 and Gαq/z): 30 nM

CSCC[C@H](NC(=O)[C@@H]1CCCN1)C(=O)N[C@@H](CCCNC(=N)N)C(=O)N[C@@H](Cc1ccccc1)C(N)=O [PMRFa] (H-PMRF-NH2; N-terminus assumed)
Ki [1, 3]: 2.82 nM

CNCCCN1c2ccccc2CCc2ccccc21 [desipramine]
pKi for cloned rat NPFF1 receptor binding in COS-7 cells, MEAN [1, 4]: 5.000 | pKi for rat spinal cord membrane receptor binding, MEAN [2]: 5.000

NCCc1ccc(O)c(O)c1 [dopamine]
pKi for cloned rat NPFF1 receptor binding in COS-7 cells, MEAN [1, 4]: 5.000 | pKi for rat spinal cord membrane receptor binding, MEAN [2]: 5.000

CCNC(C)Cc1cccc(C(F)(F)F)c1 (centres unmarked) [fenfluramine]
pKi for cloned rat NPFF1 receptor binding in COS-7 cells, MEAN [1, 4]: 5.000 | pKi for rat spinal cord membrane receptor binding, MEAN [2]: 5.000

COc1ccc2c(c1)[nH]c1c(C)nccc12 [harmine]
pKi for cloned rat NPFF1 receptor binding in COS-7 cells, MEAN [1, 4]: 5.000 | pKi for rat spinal cord membrane receptor binding, MEAN [2]: 5.000

C[C@@H]1CN([C@H]2CC[C@](C#N)(c3ccc(F)cc3)CC2)CC[C@]1(C(=O)O)c1ccccc1 [levocabastine]
pKi for cloned rat NPFF1 receptor binding in COS-7 cells, MEAN [1, 4]: 5.000 | pKi for rat spinal cord membrane receptor binding, MEAN [2]: 5.000

CN1CC[C@]23c4c5ccc(O)c4O[C@H]2[C@@H](O)C=C[C@H]3[C@H]1C5 [morphine]
inhibition of [125I](1DMe)Y8Fa binding (NPFF receptors): No inhibition

CC(C)C[C@H](NC(=O)[C@H](CCCCN)NC(=O)[C@H](CCCN=C(N)N)NC(=O)[C@H](C)NC(=O)[C@H](CO)NC(=O)[C@H](CCCCN)NC(=O)[C@H](CCCN=C(N)N)NC(=O)[C@H](C)NC(=O)CNC(=O)[C@@H](NC(=O)[C@H](Cc1ccccc1)NC(=O)CNC(=O)CNC(=O)[C@@H](N)Cc1ccccc1)[C@@H](C)O)C(=O)N[C@@H](C)C(=O)N[C@@H](CC(N)=O)C(=O)N[C@@H](CCC(N)=O)C(=O)O [nociceptin]
pKi for cloned rat NPFF1 receptor binding in COS-7 cells, MEAN [1, 4]: 5.000 | pKi for rat spinal cord membrane receptor binding, MEAN [2]: 5.000 | activation of oocytes injected with SNORF2 synthetic RNA (SNORF2 (NPFF1)): failed to activate

Cc1nc2sccn2c(=O)c1CCN1CCC(=C(c2ccc(F)cc2)c2ccc(F)cc2)CC1 [ritanserine]
pKi for cloned rat NPFF1 receptor binding in COS-7 cells, MEAN [1, 4]: 5.000 | pKi for rat spinal cord membrane receptor binding, MEAN [2]: 5.000

AGEGLSSPYWSLAAPQRF-NH2 [[Y^9]A18Fa]
Ki [1, 3]: 27.7 nM | inward current response (SNORF2 (NPFF1); oocytes with SNORF2 and Gαq/z): displayed activity

NPY: unrelated neuropeptide
inward current response (NPFF2 (hNPFF2)): failed to activate responses; also recorded: no response is observed | inhibition of [125I](1DMe)Y8Fa binding (NPFF receptors): No inhibition

PDVDHVFLRF-NH2 [SchistFLRF]
Ki [1]: 1100 nM

PYY: unrelated neuropeptide
activation of oocytes injected with SNORF2 synthetic RNA (SNORF2 (NPFF1)): failed to activate

TEPGLEEVGEIEQKQLQ [nocistatin]
pKi for rat spinal cord membrane receptor binding, MEAN [2]: 5.000

YLFQPQRF-NH2 [Y8Fa] [listing 1 of 2 here]
Ki [1, 3]: 4.15 nM

YLFQPQRF-NH2 [Y8Fa] [listing 2 of 2 here]
inward current response (SNORF2 (NPFF1); oocytes with SNORF2 and Gαq/z): displayed activity

a-MSH
pKi for rat spinal cord membrane receptor binding, MEAN [2]: 5.000

ibogaine
pKi for rat spinal cord membrane receptor binding, MEAN [2]: 5.000

melanin concentrating hormone: unrelated neuropeptide
activation of oocytes injected with SNORF2 synthetic RNA (SNORF2 (NPFF1)): failed to activate

neurokinin A: unrelated neuropeptide
inward current response (NPFF2 (hNPFF2)): failed to activate responses; also recorded: no response is observed

orexin A: unrelated neuropeptide (QPLPDCCRQKTCSCRLYELLHGAGNHAAGILTL; ends and bridges not checked; cysteine pairing not given here; UniProt O43612 34-66, looked up)
inward current response (NPFF2 (hNPFF2)): failed to activate responses; also recorded: no response is observed

orexin B: unrelated neuropeptide
activation of oocytes injected with SNORF2 synthetic RNA (SNORF2 (NPFF1)): failed to activate

substance P
pKi for rat spinal cord membrane receptor binding, MEAN [2]: 5.000 | inhibition of [125I](1DMe)Y8Fa binding (NPFF receptors): No inhibition

B1: CCK: unrelated neuropeptide (peptide, UniProt P06307 21-115, looked up)
Cholecystokinin: QPVPPADPAGSGLQRAEEAPRRQLRVSQRTDGESRAHLGALLARYIQQARKAPSGRMSIVKNLQNLDPSHRISDRDYMGWMDFGRRSAEEYEYPS
modifications: Cholecystokinin
notes: unrelated neuropeptide
activation of oocytes injected with SNORF2 synthetic RNA (SNORF2 (NPFF1)): failed to activate
